Where “and” joins values, the source holds several entries; their conditions need not be identical. Equal values may be shown once. Toxic doses and inconclusive results are not listed. Square brackets hold non-standard residues; d marks the D form. Peptide text beside a SMILES is read from it. ξ: configuration not given here. ξH = NC(Cc1c[nH]cn1)C(=O)O
Tested on: BDF1 mice, B16 melanoma ip, median survival T/C
Assay: NCI In Vivo Anticancer Drug Screen. Data for tumor model B16 Melanoma (intraperitoneal) in B6D2F1 (BDF1) mice
Settings: endpoint: median survival time, higher = longer survival
Procedure, shortened: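 Values are ratios of treated (T) to vehicle-control (C) measurements of survival or tumor size in tumor-bearing mice.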

[1] = dose: 0.5 mg/kg/injection, schedule: Q01DX009 (ip), vehicle: saline with Tween-80
[2] = dose: 1.0 mg/kg/injection, schedule: Q01DX009 (ip), vehicle: saline with Tween-80
[3] = dose: 2.0 mg/kg/injection, schedule: Q01DX009 (ip), vehicle: saline with Tween-80
[4] = dose: 50.0 mg/kg/injection, schedule: Q01DX009 (ip), vehicle: saline
[5] = dose: 100.0 mg/kg/injection, schedule: Q01DX009 (ip), vehicle: saline
[6] = dose: 200.0 mg/kg/injection, schedule: Q01DX009 (ip), vehicle: saline
[7] = dose: 12.5 mg/kg/injection, schedule: Q01DX009 (ip), vehicle: Klucel (hydroxypropylcellulose) (HPC)
[8] = dose: 50.0 mg/kg/injection, schedule: Q01DX009 (ip), vehicle: saline with Tween-80
[9] = dose: 100.0 mg/kg/injection, schedule: Q01DX009 (ip), vehicle: saline with Tween-80
[10] = dose: 200.0 mg/kg/injection, schedule: Q01DX009 (ip), vehicle: saline with Tween-80
[11] = dose: 12.5 mg/kg/injection, schedule: Q01DX009 (ip), vehicle: saline with Tween-80
[12] = dose: 25.0 mg/kg/injection, schedule: Q01DX009 (ip), vehicle: saline with Tween-80
[13] = dose: 6.25 mg/kg/injection, schedule: Q01DX009 (ip), vehicle: saline with Tween-80

COc1cccc2c1C(=O)c1c(O)c3c(c(O)c1C2=O)C[C@@](O)(C(=O)COC(=O)Cc1cccc2ccccc12)C[C@@H]3OC1CC(N)C(O)C(C)O1 (some centres not stated)
T/C [1]: 169 % of control | T/C [2]: 150 % of control and 227 % of control | T/C [3]: 169 % of control and 238 % of control | T/C (dose: 4.0 mg/kg/injection, schedule: Q01DX009 (ip), vehicle: saline with Tween-80): 192 % of control and 284 % of control

Nc1ccc(F)cc1[N+](=O)[O-]
T/C (dose: 75.0 mg/kg/injection, schedule: Q01DX009 (ip), vehicle: Klucel (hydroxypropylcellulose) (HPC)): 122 % of control | T/C (dose: 150.0 mg/kg/injection, schedule: Q01DX009 (ip), vehicle: Klucel (hydroxypropylcellulose) (HPC)): 105 % of control | T/C (dose: 300.0 mg/kg/injection, schedule: Q01DX009 (ip), vehicle: Klucel (hydroxypropylcellulose) (HPC)): 102 % of control

Cc1ccc(S(=O)(=O)Nc2ncc([N+](=O)[O-])s2)cc1
T/C (dose: 12.5 mg/kg/injection, schedule: Q04DX003 (ip), vehicle: saline with Tween-80): 102 % of control | T/C (dose: 25.0 mg/kg/injection, schedule: Q04DX003 (ip), vehicle: saline with Tween-80): 109 % of control | T/C (dose: 50.0 mg/kg/injection, schedule: Q04DX003 (ip), vehicle: saline with Tween-80): 109 % of control

OCCN(CCO)CN(CO)c1nc(N(CO)CN(CCO)CCO)nc(N(CO)CN(CCO)CCO)n1
T/C (dose: 100.0 mg/kg/injection, schedule: Q04DX003 (ip), vehicle: saline): 120 % of control | T/C (dose: 200.0 mg/kg/injection, schedule: Q04DX003 (ip), vehicle: saline): 123 % of control | T/C (dose: 400.0 mg/kg/injection, schedule: Q04DX003 (ip), vehicle: saline): 112 % of control

Cc1cc2c(c(O)c1CN1CCOCC1)C1=C(CCCC1)C(C)(C)O2
T/C (dose: 32.0 mg/kg/injection, schedule: Q01DX009 (ip), vehicle: Klucel (hydroxypropylcellulose) (HPC)): 108 % of control | T/C (dose: 64.0 mg/kg/injection, schedule: Q01DX009 (ip), vehicle: Klucel (hydroxypropylcellulose) (HPC)): 98 % of control | T/C (dose: 128.0 mg/kg/injection, schedule: Q01DX009 (ip), vehicle: Klucel (hydroxypropylcellulose) (HPC)): 93 % of control | T/C (dose: 256.0 mg/kg/injection, schedule: Q01DX009 (ip), vehicle: Klucel (hydroxypropylcellulose) (HPC)): 103 % of control

[Cl][Pt+2][Cl].[NH-]C1CCC1.[NH-]C1CCC1
T/C [1]: 108 % of control | T/C [2]: 117 % of control | T/C [3]: 115 % of control | T/C (dose: 5.0 mg/kg/injection, schedule: Q01DX009 (ip), vehicle: Klucel (hydroxypropylcellulose) (HPC)): 112 % of control

CNC1=C(N2CC2)C(=O)C(NC)=C(N2CC2)C1=O
T/C (dose: 0.01 mg/kg/injection, schedule: Q01DX009 (ip), vehicle: saline): 102 % of control | T/C (dose: 0.1 mg/kg/injection, schedule: Q01DX009 (ip), vehicle: saline): 108 % of control | T/C (dose: 0.2 mg/kg/injection, schedule: Q01DX009 (ip), vehicle: saline): 94 % of control

C/C=C/C=C\C1OC(O)([C@H](CC)C(=O)NC/C=C/C=C(\C)[C@H](OC)C(C)C2OC(\C=C/C=C/C=C(\C)C(=O)c3c(O)ccn(C)c3=O)[C@H](O)[C@@H]2O)C(O)C(O)C1(C)C (some centres not stated)
T/C (dose: 25.0 mg/kg/injection, schedule: Q01DX009 (ip), vehicle: saline): 102 % of control | T/C [4]: 89 % of control | T/C [5]: 91 % of control | T/C [6]: 97 % of control

NCC(=O)NCC(=O)NC(Cc1cnc[nH]1)C(=O)O (stereo not drawn) (H-Gly-Gly-[ξH]-OH)
T/C [4]: 92 % of control | T/C [5]: 99 % of control | T/C [6]: 88 % of control | T/C (dose: 400.0 mg/kg/injection, schedule: Q01DX009 (ip), vehicle: saline): 101 % of control

COc1cccc(/C=c2\[nH]c(=O)/c(=C/c3cccc(OC)c3OC)[nH]c2=O)c1OC
T/C [7]: 89 % of control | T/C (dose: 25.0 mg/kg/injection, schedule: Q01DX009 (ip), vehicle: Klucel (hydroxypropylcellulose) (HPC)): 99 % of control | T/C (dose: 50.0 mg/kg/injection, schedule: Q01DX009 (ip), vehicle: Klucel (hydroxypropylcellulose) (HPC)): 92 % of control and 96 % of control

OC(CC1(O)C(F)(F)C(F)(F)C1(F)F)c1ccccc1 (configuration not stated)
T/C [8]: 107 % of control | T/C [9]: 110 % of control | T/C [10]: 94 % of control

CN1CCN(Cc2nc3cccc4c3c([n+]2[O-])-c2ccccc2-4)CC1
T/C [11]: 101 % of control | T/C [12]: 95 % of control | T/C [8]: 105 % of control | T/C [9]: 112 % of control | T/C [10]: 116 % of control

Cc1ccc(NC(=O)COc2ccc(Cl)cc2)cc1Cl
T/C (dose: 3.13 mg/kg/injection, schedule: Q01DX009 (ip), vehicle: saline with Tween-80): 101 % of control | T/C [13]: 106 % of control | T/C [11]: 93 % of control and 101 % of control | T/C [12]: 87 % of control | T/C [8]: 96 % of control

C=C(C)C(=O)OCC12CCC(C)=CC1OC1C(O)C(OC(=O)CCl)C2(C)C12CO2 (configuration not stated)
T/C (dose: 0.25 mg/kg/injection, schedule: Q01DX009 (ip), vehicle: water): 122 % of control | T/C (dose: 0.5 mg/kg/injection, schedule: Q01DX009 (ip), vehicle: water): 124 % of control | T/C (dose: 1.0 mg/kg/injection, schedule: Q01DX009 (ip), vehicle: water): 152 % of control | T/C (dose: 2.0 mg/kg/injection, schedule: Q01DX009 (ip), vehicle: water): 152 % of control

O=NN(CCF)C(=O)NC1CCS(=O)(=O)CC1
T/C (dose: 3.75 mg/kg/injection, schedule: Q01DX001 (ip), vehicle: saline): 173 % of control | T/C (dose: 7.5 mg/kg/injection, schedule: Q01DX001 (ip), vehicle: saline): 241 % of control | T/C (dose: 15.0 mg/kg/injection, schedule: Q01DX001 (ip), vehicle: saline): 260 % of control | T/C (dose: 30.0 mg/kg/injection, schedule: Q01DX001 (ip), vehicle: saline): 256 % of control | T/C (dose: 60.0 mg/kg/injection, schedule: Q01DX001 (ip), vehicle: saline): 260 % of control

COc1cc2cc3c4cc(OC)c(OC)cc4cc[n+]3c(C)c2cc1OC
T/C (dose: 400.0 mg/kg/injection, schedule: Q01DX009 (ip), vehicle: saline sonified): 86 % of control

CCCCCCCCCCCC(O)CCCC (configuration not stated)
T/C (dose: 6.25 mg/kg/injection, schedule: Q01DX009 (ip), vehicle: Klucel (hydroxypropylcellulose) (HPC)): 99 % of control | T/C [7]: 104 % of control

NC(=O)c1cc([N+](=O)[O-])c(Cl)c([N+](=O)[O-])c1Cl
T/C (dose: 4.0 mg/kg/injection, schedule: Q01DX009 (ip), vehicle: Klucel (hydroxypropylcellulose) (HPC)): 93 % of control | T/C (dose: 8.0 mg/kg/injection, schedule: Q01DX009 (ip), vehicle: Klucel (hydroxypropylcellulose) (HPC)): 92 % of control

CN1C(=O)CC2(CCN(CCCC(=O)c3ccc(F)cc3)CC2)C1=O
T/C [13]: 99 % of control | T/C [11]: 109 % of control | T/C [12]: 104 % of control | T/C [8]: 95 % of control

COC(=O)C[C@](O)(CCCC(C)(C)O)C(=O)O[C@@H]1C(OC)=C[C@]23CCCN2CCc2cc4c(cc2[C@H]13)OCO4
T/C (dose: 0.13 mg/kg/injection, schedule: Q01DX009 (ip), vehicle: saline sonified): 107 % of control | T/C (dose: 0.25 mg/kg/injection, schedule: Q01DX009 (ip), vehicle: saline sonified): 120 % of control | T/C (dose: 0.25 mg/kg/injection, schedule: Q01DX009 (ip), vehicle: saline with Tween-80): 114 % of control | T/C (dose: 0.98 mg/kg/injection, schedule: Q04DX003 (ip), vehicle: saline): 121 % of control | T/C [2]: 111 % of control | T/C (dose: 1.4 mg/kg/injection, schedule: Q04DX003 (ip), vehicle: saline): 117 % of control | T/C (dose: 2.0 mg/kg/injection, schedule: Q04DX003 (ip), vehicle: saline): 118 % of control | T/C (dose: 2.86 mg/kg/injection, schedule: Q04DX003 (ip), vehicle: saline): 117 % of control

Cn1c(=O)c2c(ncn2CCO)n(C)c1=O
T/C [5]: 120 % of control | T/C [6]: 122 % of control

Cc1ccc2c(c1)CN(Cc1ccccc1)CO2
T/C (dose: 100.0 mg/kg/injection, schedule: Q01DX009 (ip), vehicle: Klucel (hydroxypropylcellulose) (HPC)): 93 % of control | T/C (dose: 200.0 mg/kg/injection, schedule: Q01DX009 (ip), vehicle: Klucel (hydroxypropylcellulose) (HPC)): 96 % of control | T/C (dose: 400.0 mg/kg/injection, schedule: Q01DX009 (ip), vehicle: Klucel (hydroxypropylcellulose) (HPC)): 96 % of control

CC(=O)c1ccccc1OCC(O)CN1CCN(c2cccc(C(F)(F)F)c2)CC1 (configuration not stated)
T/C (dose: 100.0 mg/kg/injection, schedule: Q04DX003 (ip), vehicle: saline with Tween-80): 102 % of control | T/C (dose: 200.0 mg/kg/injection, schedule: Q04DX003 (ip), vehicle: saline with Tween-80): 93 % of control | T/C (dose: 400.0 mg/kg/injection, schedule: Q04DX003 (ip), vehicle: saline with Tween-80): 91 % of control
